The target of the test is T1, E. coli GlpG (Escherichia coli, UniProt P09391).
T1 sequence (P09391 1-276): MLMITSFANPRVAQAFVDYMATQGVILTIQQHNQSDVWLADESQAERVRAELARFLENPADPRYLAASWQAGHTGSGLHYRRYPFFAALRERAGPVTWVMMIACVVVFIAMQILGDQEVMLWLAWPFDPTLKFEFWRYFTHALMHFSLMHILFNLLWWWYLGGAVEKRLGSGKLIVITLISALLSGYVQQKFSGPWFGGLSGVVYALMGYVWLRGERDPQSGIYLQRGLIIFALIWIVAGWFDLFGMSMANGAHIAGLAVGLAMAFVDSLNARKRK
Kind of test: FRET peptide cleavage assay. It counts as biochemical.

One may read the IC50 as the midpoint of a concentration-inhibition curve. Read a low IC50 as inhibition by little substance. Regarding `Cc1ccc(S(=O)(=O)N[C@@H](Cc2ccccc2)C(=O)CCl)cc1` [tosyl phenylalanyl chloromethylketone], the IC50 turned out to be 296 µM.
